Structures can show the parent of a compound that is named as a salt. Where two headings read alike, the source gives them in different places.
Tests used:
[1] = Weight loss on drying by thermogravimetry (hygroscopicity); assay type: physicochemical; settings: for hygroscopicity: judged from weight loss as prepared vs 1 day at 92% relative humidity
Excerpt: The weight loss (%) on drying, measured by thermogravimetry, of the salt as prepared was 1.12%. If kept for 1 day at 92% relative humidity, the weight loss was 1.71%.
The weight loss (%) on drying, measured by thermogravimetry, of the salt as prepared was 2.08%. If kept for 1 day at 92% relative humidity, the weight loss was 2.21%.
The weight loss (%) on drying, measured by thermogravimetry, of the salt as prepared was 1.76%. If kept for 1 day at 92% relative humidity, the weight loss was 2.14%.

[2] = Stability of liquid formulations of the salts; settings: for stability in DMSO: either diluted or not
Description: From the mesylate, tosylate and hippurate salts as prepared above, liquid formulations were prepared by dissolving/suspending these salts in a solvent/suspension medium. Stability tests were made on these liquid formulations. The amount of degradation products and the degree of discoloration were established.

[3] = Solid state stability of the salts (HPLC, colour); settings: Bulk (HPLC)
Description: Tests for solid state stability were made for the mesylate, tosylate and hippurate salts as prepared above.

[4] = Solubility of the obtained material; assay type: physicochemical; settings: thermodynamic from solid
Description: 2.40 g of amorphous N-((S)-3-amino-4-fluorobutyl)-N-((R)-1-(1-benzlyl-4-(2,5-difluoro-phenyl)-1H-imidazol-2-yl)-2,2-dimethylpropyl)-2-hydroxyacetamide were dissolved at 50° C. in 9 ml acetonitrile/water 95:5 v/v having a water activity of 0.6, and stirred. Within about 1 minute, a suspension was formed. Another 6 ml of acetonitrile/water 95:5 v/v were added. Subsequently, the suspension was cooled to room temperature in about 1 hour and stirred for 14 hours. Then, the suspension was filtered and air dried for about 5 minutes. Yield: 1.82 g (75%). The obtained material was analyzed by X-ray diffraction (FIG. 1).

[5] = 0.1% solutions or suspensions, 1 week, 50° C., Methanol
[6] = 0.1% solutions or suspensions, 1 week, 50° C., pH 3
[7] = 0.1% solutions or suspensions, 1 week, 50° C., pH 4.5
[8] = 0.1% solutions or suspensions, 1 week, 50° C., pH 5
[9] = 0.1% solutions or suspensions, 1 week, 50° C., pH 7
[10] = 2% solutions or suspensions, 1 day, room temperature, DMSO
[11] = 2% solutions or suspensions, 1 day, room temperature, Dilution pH 6.8 (diluted with buffer 1:100)
[12] = 5% solutions, 1 day, room temperature, DMSO
[13] = 5% solutions, 1 day, room temperature, Dilution pH 6.8
[14] = 2 weeks, 50° C., tight container
[15] = Xenon light (approx. 1200 kLuxh)

Row | Compound | hygroscopicity [1] | Amount of degradation products [%] [2, 5] | Amount of degradation products [%] [2, 6] | Amount of degradation products [%] [2, 7] | Amount of degradation products [%] [2, 8] | Amount of degradation products [%] [2, 9] | Amount of degradation products [%] [2, 10] | Amount of degradation products [%] [2, 11] | Amount of degradation products [%] [2, 12] | Amount of degradation products [%] [2, 13] | stability in DMSO [2] | Amount of degradation products [%] ([3]; 2 weeks, 50° C., 75% r.h.) | Amount of degradation products [%] [3, 14] | Amount of degradation products [%] [3, 15] | further results
1 | CC(C)(C)[C@H](c1nc(-c2cc(F)ccc2F)cn1Cc1ccccc1)N(CC[C@H](N)CF)C(=O)CO [Tosylate, N-((S)-3-amino-4-fluorobutyl)-N-((R)-1-(1-benzlyl-4-(2,5-difluorophenyl)-1H-imidazol-2-yl)-2,2-dimethylpropyl)-2-hydroxyacetamide] | low hygroscopicity | – | – | – | – | – | – | – | – | – | – | – | – | – | weight loss (%) on drying, measured by thermogravimetry ([1]; kept for 1 day at 92% relative humidity, listed as tosylate salt): 1.71%; weight loss (%) on drying, measured by thermogravimetry ([1]; salt as prepared, listed as tosylate salt): 1.12%; Amount of degradation products [%] (1 week, 0.1 %): 0.35%; Amount of degradation products [%] (1 week, 0.1 %, pH 3): 0.27%; Amount of degradation products [%] (1 week, 0.1 %, pH 4.5): 0.59%; Amount of degradation products [%] (1 week, 0.1 %, pH 5): 1.81%; Amount of degradation products [%] (1 week, 0.1 %, pH 7): 7.60%; Amount of degradation products [%] (1 day, 0.02 %, pH 6.8): 0.33%; Amount of degradation products [%] (1 day, 2 %): 0.14%; Amount of degradation products [%] (1 day, 5 %): 0.15%; Amount of degradation products [%] (1 day, pH 6.8): 0.11%
2 | CC(C)(C)[C@H](c1nc(-c2cc(F)ccc2F)cn1Cc1ccccc1)N(CC[C@H](N)CF)C(=O)CO [Mesylate, N-((S)-3-amino-4-fluorobutyl)-N-((R)-1-(1-benzlyl-4-(2,5-difluorophenyl)-1H-imidazol-2-yl)-2,2-dimethylpropyl)-2-hydroxyacetamide] | low hygroscopicity | 0.21% | 0.25% | 0.69% | 0.71% | 3.87% | 0.07% | 0.19% | <0.05% | 0.30% | very stable | <0.05% | 0.07% | <0.05% | stability in methanol ([2]; in methanol): very stable; weight loss (%) on drying, measured by thermogravimetry ([1]; kept for 1 day at 92% relative humidity, listed as mesylate salt): 2.21%; weight loss (%) on drying, measured by thermogravimetry ([1]; salt as prepared, listed as mesylate salt): 2.08%
3 | CC(C)(C)[C@H](c1nc(-c2cc(F)ccc2F)cn1Cc1ccccc1)N(CC[C@H](N)CF)C(=O)CO [crystalline form D, N-((S)-3-amino-4-fluorobutyl)-N-((R)-1-(1-benzlyl-4-(2,5-difluorophenyl)-1H-imidazol-2-yl)-2,2-dimethylpropyl)-2-hydroxyacetamide mesylate] | – | – | – | – | – | – | – | – | – | – | – | – | – | – | solubility ([4]; 0.1 N HCl, pH 1, simulated gastric fluid, read-out: solubility in 0.1 N HCl): 1400 µg/mL; solubility ([4]; buffer pH 6.8, pH 6.8, aqueous buffer, read-out: solubility in buffer with pH 6.8): 10 µg/mL; solubility ([4]; water, read-out: solubility in water): 4400 µg/mL
4 | CC(C)(C)[C@H](c1nc(-c2cc(F)ccc2F)cn1Cc1ccccc1)N(CC[C@H](N)CF)C(=O)CO [Hippurate, N-((S)-3-amino-4-fluorobutyl)-N-((R)-1-(1-benzlyl-4-(2,5-difluorophenyl)-1H-imidazol-2-yl)-2,2-dimethylpropyl)-2-hydroxyacetamide] | low hygroscopicity | 11.81% | 0.48% | 1.03% | 1.80% | 5.32% | 0.78% | 0.82% | 0.94% | 0.84% | very stable | 1.02% | 0.79% | 0.43% | weight loss (%) on drying, measured by thermogravimetry ([1]; kept for 1 day at 92% relative humidity, listed as hippurate salt): 2.14%; weight loss (%) on drying, measured by thermogravimetry ([1]; salt as prepared, listed as hippurate salt): 1.76%

— patent US20110275685A1, “SALT AND POLYMORPHS OF A KINESIN INHIBITOR COMPOUND” (priority 2009, published 2011)
